According to patent US8895605B2, “Pyrrolidine-substituted flavones as radio-sensitizers for use in the treatment of cancer” (Piramal Enterprises Limited, priority 2009, dated 2014):
Where two headings read alike, the source gives them in different places.

Columns and labels:
[1] = system: FaDu (human head and neck cancer) cells; assay: In-vitro MTS assay (cytotoxicity, Compound A alone and with radiation); type: cell-based; settings: for cytotoxicity at 0.7 µM / cytotoxicity at 1 µM / cytotoxicity at 2 µM: FaDu, no radiation; for cytotoxicity at 0.7 µM: 0.7 μM Compound A (IC30) alone; for cytotoxicity at 1 µM: 1 μM Compound A (IC50) alone; for cytotoxicity at 2 µM: 2 μM Compound A (IC70) alone; for Combination index (CI): CompuSyn
Excerpt: The assay has been carried out according to the method described in Molecular Cancer Therapeutics, 2007, 6(9); the disclosure of which is incorporated by reference for the teaching of the assay. MTS (Promega, Cat #G1111) is a tetrazolium compound ((3-(4,5-dimethylthiazol-2-yl)-5-(3-carboxymethoxyphenyl)-2-(4-sulphophenyl)-2H-tetrazolium, inner salt; MTS) for use in colorimetric assays for determining the number of viable cells in proliferation, cytotoxicity or chemosensitivity assays. This is used with an electron coupling reagent PMS (Phenazine methosulfate). MTS is bioreduced by cells into a formazan that is soluble in tissue culture medium. The absorbance of the formazan at 490 nm can be measured directly from 96 well assay plates without additional processing. Dehydrogenase enzymes found in metabolically active cells accomplish the conversion of MTS into the aqueous soluble formazan. The quantity of formazan product as measured at 490 nm absorbance is directly proportional to the number of living cells in culture. Before testing the effect of Compound A on radiosensitivity of FaDu (human head and neck cancer, ATCC, USA) cells, the dose dependent cytotoxicity of Compound A alone was determined using MTS assay. Tumor cells were incubated in the presence of various concentrations of Compound A for 48 h and subjected to MTS assay. […] The Fa-Du (human head and neck cancer, ATCC, USA) cells were seeded at density of 1500 cells/well in 180 μL of MEM (minimum essential medium) in tissue culture grade 96-well plate and allowed to grow for 24 h in humidified 5% CO2 incubator at 37±1° C. Three identical groups of cells were made. After a time interval of 24 h after seeding, different wells of the first and second group of cells were irradiated at room temperature at dose of 2, 4, 6, 8 and 10 Gy respectively. The second group was further treated 24 h after irradiation (i.e. on the third day of the experiment) with IC30 concentration of Compound A. The third group was treated on the third day of the experiment, with IC30 concentration of Compound A alone. In order to obtain IC30 concentration (0.7 μM) of Compound A in any well, 20 μL of a stock solution of concentration 10×IC30, (i.e. 7 μM) was added to the well (dissolved first in DMSO and then in cell medium, final DMSO concentration should not exceed 0.5%) and diluted to 200 μL with MEM. The wells were incubated for 48 h and 96 h respectively, in humidified 5% CO2 incubator at 37±1° C. After completion of 48 h and 96 h respectively, the medium was removed from all wells and fresh MEM was added and the plates were incubated further for additional 4-6 days or for total of 8-10 days from the start of the experiment. At the end of the experiment, the medium was removed from all wells and 20 μL of MTS (2 mg/ml in phosphate buffer saline, pH 6-6.5 and filter sterilized) and 1 μL of PMS (3 mM in PBS, pH 7.3 and filter sterilized) was added per well along with the cell medium to adjust the total volume to 200 μL/well. The plate was incubated for 2-4 h in humidified 5% CO2 incubator at 37±1° C. The plate was read at 490 nm on Spectrophotometer (SpectraMax, Molecular Devices, USA), and the percentage cytotoxicity using SoftMax, software for SpectraMax was calculated. The above experiment was repeated using IC50 and IC70 concentrations of Compound A. The enhancement in radiation effects in FaDu cell line as evaluated using the CompuSyn software by Chou and Talalay, described in Pharmacological Reviews, 2006, 58, 621-681, which is incorporated herewith by reference. Combination index (CI) is used to evaluate if a combination is additive, synergistic or antagonistic. CI<1 is synergistic, CI=1 is additive and CI>1 is antagonistic. For example, at a treatment of 48 h with a concentration of IC70 of Compound A, the combination was synergistic (CI=0.7) at all the doses of radiation. The combination index in both the cases ie. […]

FaDu cell line = assay: In-vitro clonogenic assay (Compound A alone and with radiation); type: cell-based, human; settings: 3500 cells/well, 1 μM Compound A for 48 h and 96 h; colonies could not be counted
[2] = Compound A alone, 48 h incubation, FaDu cells
[3] = Homo sapiens, 48 h, read-out: % cytotoxicity 48 h after Compound A treatment
[4] = Homo sapiens, 96 h, read-out: % cytotoxicity 96 h after Compound A treatment

CN1CC[C@@H](c2c(O)cc(O)c3c(=O)cc(-c4ccccc4Cl)oc23)[C@@H]1CO.Cl [Compound A, (+)-trans-2-(2-Chlorophenyl)-5,7-dihydroxy-8-(2-hydroxymethyl-1-methyl-pyrrolidin-3-yl)-chromen-4-one hydrochloride]
% cytotoxicity 48 h after Compound A treatment ([1]; 2 Gy radiation, then 0.7 μM Compound A (IC30) 24 h after radiation, 48 h): 23%
% cytotoxicity 96 h after Compound A treatment ([1]; 2 Gy radiation, then 0.7 μM Compound A (IC30) 24 h after radiation, 96 h): 15%
% cytotoxicity 48 h after Compound A treatment ([1]; 2 Gy radiation, then 1 μM Compound A (IC50) 24 h after radiation, 48 h): 35%
% cytotoxicity 48 h after Compound A treatment ([1]; 2 Gy radiation, then 2 μM Compound A (IC70) 24 h after radiation, 48 h): 79%
% cytotoxicity 96 h after Compound A treatment ([1]; 2 Gy radiation, then 2 μM Compound A (IC70) 24 h after radiation, 96 h): 98%
% cytotoxicity 48 h after Compound A treatment ([1]; 4 Gy radiation, then 0.7 μM Compound A (IC30) 24 h after radiation, 48 h): 35%
% cytotoxicity 96 h after Compound A treatment ([1]; 4 Gy radiation, then 0.7 μM Compound A (IC30) 24 h after radiation, 96 h): 31%
% cytotoxicity 48 h after Compound A treatment ([1]; 4 Gy radiation, then 1 μM Compound A (IC50) 24 h after radiation, 48 h): 50%
% cytotoxicity 96 h after Compound A treatment ([1]; 4 Gy radiation, then 1 μM Compound A (IC50) 24 h after radiation, 96 h): 37%
% cytotoxicity 48 h after Compound A treatment ([1]; 4 Gy radiation, then 2 μM Compound A (IC70) 24 h after radiation, 48 h): 86%
% cytotoxicity 96 h after Compound A treatment ([1]; 4 Gy radiation, then 2 μM Compound A (IC70) 24 h after radiation, 96 h): 96%
% cytotoxicity 48 h after Compound A treatment ([1]; 6 Gy radiation, then 0.7 μM Compound A (IC30) 24 h after radiation, 48 h): 64%
% cytotoxicity 96 h after Compound A treatment ([1]; 6 Gy radiation, then 0.7 μM Compound A (IC30) 24 h after radiation, 96 h): 60%
% cytotoxicity 48 h after Compound A treatment ([1]; 6 Gy radiation, then 1 μM Compound A (IC50) 24 h after radiation, 48 h): 73%
% cytotoxicity 96 h after Compound A treatment ([1]; 6 Gy radiation, then 1 μM Compound A (IC50) 24 h after radiation, 96 h): 77%
% cytotoxicity 48 h after Compound A treatment ([1]; 6 Gy radiation, then 2 μM Compound A (IC70) 24 h after radiation, 48 h): 89%
% cytotoxicity 96 h after Compound A treatment ([1]; 6 Gy radiation, then 2 μM Compound A (IC70) 24 h after radiation, 96 h): 96%
% cytotoxicity 48 h after Compound A treatment ([1]; 8 Gy radiation, then 0.7 μM Compound A (IC30) 24 h after radiation, 48 h): 79%
% cytotoxicity 96 h after Compound A treatment ([1]; 8 Gy radiation, then 0.7 μM Compound A (IC30) 24 h after radiation, 96 h): 69%
% cytotoxicity 48 h after Compound A treatment ([1]; 8 Gy radiation, then 1 μM Compound A (IC50) 24 h after radiation, 48 h): 85%
% cytotoxicity 96 h after Compound A treatment ([1]; 8 Gy radiation, then 1 μM Compound A (IC50) 24 h after radiation, 96 h): 84%
% cytotoxicity 48 h after Compound A treatment ([1]; 8 Gy radiation, then 2 μM Compound A (IC70) 24 h after radiation, 48 h): 91%
% cytotoxicity 96 h after Compound A treatment ([1]; 8 Gy radiation, then 2 μM Compound A (IC70) 24 h after radiation, 96 h): 95%
% cytotoxicity 48 h after Compound A treatment ([1]; 10 Gy radiation, then 0.7 μM Compound A (IC30) 24 h after radiation, 48 h): 80%
% cytotoxicity 96 h after Compound A treatment ([1]; 10 Gy radiation, then 0.7 μM Compound A (IC30) 24 h after radiation, 96 h): 85%
% cytotoxicity 48 h after Compound A treatment ([1]; 10 Gy radiation, then 1 μM Compound A (IC50) 24 h after radiation, 48 h): 86%
% cytotoxicity 96 h after Compound A treatment ([1]; 10 Gy radiation, then 1 μM Compound A (IC50) 24 h after radiation, 96 h): 90%
% cytotoxicity 48 h after Compound A treatment ([1]; 10 Gy radiation, then 2 μM Compound A (IC70) 24 h after radiation, 48 h): 91%
% cytotoxicity 96 h after Compound A treatment ([1]; 10 Gy radiation, then 2 μM Compound A (IC70) 24 h after radiation, 96 h): 94%
IC30 [1, 2]: 700 nM
IC70 [1, 2]: 2000 nM
cytotoxicity at 0.7 µM [1, 3]: 8%
cytotoxicity at 0.7 µM [1, 4]: 4%
cytotoxicity at 1 µM [1, 3]: 20%
cytotoxicity at 1 µM [1, 4]: 25%
cytotoxicity at 2 µM [1, 3]: 66%
cytotoxicity at 2 µM [1, 4]: 83%
IC50 ([1]; Homo sapiens, Compound A alone, 48 h incubation, FaDu cells): 1000 nM
Enhancement in radiation effects (combination class) ([1]; radiation 6, 8 and 10 Gy followed by Compound A at IC30 for 48 h): synergistic (CI<1 is synergistic)
Enhancement in radiation effects (combination class) ([1]; radiation 6, 8 and 10 Gy followed by Compound A at IC50 for 48 h): synergistic (CI<1 is synergistic)
Combination index (CI) ([1]; radiation + Compound A at IC30, 96 h treatment, all doses of radiation): 1
Combination index (CI) ([1]; radiation + Compound A at IC50, 96 h treatment, all doses of radiation): 1
Combination index (CI) ([1]; radiation + Compound A at IC70, 48 h treatment, all doses of radiation): 0.7
Combination index (CI) ([1]; radiation + Compound A at IC70, 96 h treatment, at 2, 4 and 6 Gy): < 1
Radiation response in clonogenic assay (visual) (FaDu cell line): visual enhancement in radiation response
